Legend:
[1] = biological target: T1, Bovine lysyl oxidase (LOX) (Bos taurus, UniProt P33072); assay: LOX inhibition assay (fluorometric, cadaverine/Amplex Red/HRP); format: biochemical; conditions: IC50 class; bovine tendon LOX, cadaverine substrate; read-out: Activity Range LOX
T1 construct: from tissue; host or cells: adult bovine tendon
T1 sequence (P33072 170-418): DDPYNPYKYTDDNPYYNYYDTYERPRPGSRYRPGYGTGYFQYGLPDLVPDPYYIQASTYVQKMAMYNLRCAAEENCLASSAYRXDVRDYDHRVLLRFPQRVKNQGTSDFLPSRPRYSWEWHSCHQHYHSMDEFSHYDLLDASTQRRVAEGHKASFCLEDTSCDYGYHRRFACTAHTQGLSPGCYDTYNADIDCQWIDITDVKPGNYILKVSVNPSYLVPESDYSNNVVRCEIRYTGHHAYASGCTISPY
Summary of the method: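 Bovine tendon-extracted LOX was preincubated 30 min at 37 °C with compound. Cadaverine/Amplex Red/HRP was then added and fluorescence (ex530/em600) monitored for 120 min at 37 °C. Progress-curve slopes, background-subtracted against no-protein wells, were normalised to DMSO controls and fitted with a four-parameter variable-slope dose-response model.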

[2] = biological target: T2, Recombinant human LOXL2 (lysyl oxidase like 2) (Homo sapiens, UniProt Q9Y4K0); assay: LOXL2 inhibition assay (fluorometric, cadaverine/Amplex Red/HRP); format: biochemical; conditions: IC50 class; recombinant human LOXL2, cadaverine substrate; read-out: Activity Range LOXL2
T2 construct: purchased R&D systems
T2 sequence (Q9Y4K0 26-774): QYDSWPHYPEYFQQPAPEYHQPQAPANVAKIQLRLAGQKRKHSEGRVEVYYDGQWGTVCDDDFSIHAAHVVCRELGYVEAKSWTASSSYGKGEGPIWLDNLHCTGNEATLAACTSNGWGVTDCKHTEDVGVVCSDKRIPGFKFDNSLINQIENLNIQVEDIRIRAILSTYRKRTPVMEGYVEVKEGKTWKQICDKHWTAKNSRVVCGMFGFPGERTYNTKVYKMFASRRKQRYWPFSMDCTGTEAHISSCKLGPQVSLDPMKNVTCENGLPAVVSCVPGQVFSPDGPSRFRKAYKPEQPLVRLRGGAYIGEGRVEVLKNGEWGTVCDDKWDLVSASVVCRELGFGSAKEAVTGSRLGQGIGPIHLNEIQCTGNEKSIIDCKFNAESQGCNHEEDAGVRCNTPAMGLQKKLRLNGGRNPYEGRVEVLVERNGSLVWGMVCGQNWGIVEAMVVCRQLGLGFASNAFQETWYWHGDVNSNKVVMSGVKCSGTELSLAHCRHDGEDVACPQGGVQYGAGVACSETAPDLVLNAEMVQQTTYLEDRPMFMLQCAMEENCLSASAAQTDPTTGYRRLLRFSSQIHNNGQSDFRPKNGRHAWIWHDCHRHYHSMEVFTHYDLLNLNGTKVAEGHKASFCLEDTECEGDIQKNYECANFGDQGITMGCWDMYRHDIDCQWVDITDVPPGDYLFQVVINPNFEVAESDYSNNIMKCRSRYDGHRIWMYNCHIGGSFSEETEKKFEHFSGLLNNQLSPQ
Summary of the method: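 Both enzymes assayed in 1.2 M urea, 50 mM sodium borate pH 8.0, 10 mM CaCl, with 30 min compound–enzyme preincubation at 37° C before cadaverine/Amplex Red/HRP addition. Fluorescence followed 60 min at 37° C; linear-slope rates, background-subtracted, as % of DMSO control, fitted by 4-parameter variable-slope curve (bottom fixed at 0).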

| IC50 [1] [nM] | IC50 [2] [nM] | SMILES |
| --- | --- | --- |
| ≤ 500 | ≤ 500 | NCc1ccc(S(=O)(=O)N2C[C@@H](C(=O)N3CCOCC3)C[C@@H](c3ccccc3)C2)s1 [Example 13A, ((3S,5S)-1-((5-(aminomethyl)thiophen-2-yl)sulfonyl)-5-phenylpiperidin-3-yl)(morpholino)methanone] |
| > 30000 | ≤ 500 | NCc1cccc(S(=O)(=O)[C@H]2C[C@@H](C(=O)N3CCS(=O)(=O)CC3)CN(C3CCCCC3)C2)c1 (racemic) [Example 143, cis-(5-((3-(Aminomethyl)phenyl)sulfonyl)-1-cyclohexylpiperidin-3-yl)(1,1-dioxidothiomorpholino)methanone 2,2,2-trifluoroacetate] |
| > 30000 | 1000 to 30000 | CS(=O)(=O)N1C[C@H](Oc2ccc(CN)cc2)C[C@H](c2ccccc2)C1 (racemic) [Example 24, cis-(4-((1-(Methylsulfonyl)-5-phenylpiperidin-3-yl)oxy)phenyl)methanamine 2,2,2-trifluoroacetate] |
| > 30000 | 500 to 1000 | CS(=O)(=O)N1CCN(C(=O)[C@H]2C[C@@H](N3CCCCC3)CN(S(=O)(=O)c3cc(CN)ccn3)C2)CC1 (racemic) [Example 149, cis-(1′-((4-(Aminomethyl)pyridin-2-yl)sulfonyl)-[1,3′-bipiperidin]-5′-yl)(4-(methylsulfonyl)piperazin-1-yl)methanone 2,2,2-trifluoroacetate] |
| > 30000 | 1000 to 30000 | NCc1cncc(S(=O)(=O)N2C[C@@H](C(=O)N3CCS(=O)(=O)CC3)C[C@@H](c3ccccc3)C2)c1 (racemic) [Example 132, cis-(1-((5-(Aminomethyl)pyridin-3-yl)sulfonyl)-5-phenylpiperidin-3-yl)(1,1-dioxidothiomorpholino)methanone 2,2,2-trifluoroacetate] |
| > 30000 | 1000 to 30000 | NCc1cccc(O[C@@H]2C[C@H](c3ccccc3)CN(C(=O)N3CCS(=O)(=O)CC3)C2)c1 (racemic) [Example 73, cis-(3-(3-(Aminomethyl)phenoxy)-5-phenylpiperidin-1-yl)(1,1-dioxidothiomorpholino)methanone] |
| 1000 to 30000 | ≤ 500 | NCc1ccnc(S(=O)(=O)N2C[C@@H](C(=O)N3CCS(=O)(=O)CC3)C[C@@H](N3CCCCC3=O)C2)c1 (racemic) [Example 187, cis-1′-((4-(Aminomethyl)pyridin-2-yl)sulfonyl)-5′-(1,1-dioxidothiomorpholine-4-carbonyl)-[1,3′-bipiperidin]-2-one 2,2,2-trifluoroacetate] |
| 1000 to 30000 | 500 to 1000 | CS(=O)(=O)N1C[C@H](Oc2cccc(CN)c2)C[C@H](c2ccccc2)C1 (racemic) [Example 25, cis-(3-((-1-(Methylsulfonyl)-5-phenylpiperidin-3-yl)oxy)phenyl)methanamine 2,2,2-trifluoroacetate] |
| > 30000 | 500 to 1000 | CS(=O)(=O)N1C[C@@H](Oc2cc(CN)ccc2F)C[C@H](c2ccccc2)C1 (racemic) [Example 90, trans-(4-Fluoro-3-((-1-(methylsulfonyl)-5-phenylpiperidin-3-yl)oxy)phenyl)Methanamine 2,2,2-trifluoroacetate] |
| > 30000 | 1000 to 30000 | NCc1cccc(S(=O)(=O)N2C[C@@H](C(=O)N3CCOCC3)C[C@@H](C(F)(F)F)C2)c1 (relative stereo) [Example 98, cis-(1-((3-(Aminomethyl)phenyl)sulfonyl)-5-(trifluoromethyl)piperidin-3-yl)(morpholino)methanone 2,2,2-trifluoroacetate] |
| > 30000 | 1000 to 30000 | CS(=O)(=O)N1CCN(C(=O)[C@@H]2C[C@@H](c3ccccc3)CN(S(=O)(=O)c3cccc(CN)n3)C2)CC1 (racemic) [Example 116T, trans-(1-((6-(Aminomethyl)pyridin-2-yl)sulfonyl)-5-phenylpiperidin-3-yl)(4-(methylsulfonyl)piperazin-1-yl)methanone 2,2,2-trifluoroacetate] |
| 1000 to 30000 | ≤ 500 | CS(=O)(=O)N1CCN(C(=O)[C@H]2C[C@@H](c3ccccc3)CN(S(=O)(=O)c3ncc(CN)s3)C2)CC1 (racemic) [Example 113, cis-(1-((5-(Aminomethyl)thiazol-2-yl)sulfonyl)-5-phenylpiperidin-3-yl)(4-(methylsulfonyl)piperazin-1-yl)methanone 2,2,2-trifluoroacetate] |
| > 30000 | > 30000 | CC(N)c1cccc(S(=O)(=O)N2C[C@@H](C(=O)N3CCOCC3)C[C@@H](c3ccccc3)C2)c1 (mixture of isomers) [Example 102RAC, cis-(1-((3-(1-Aminoethyl)phenyl)sulfonyl)-5-phenylpiperidin-3-yl)(morpholino)methanone 2,2,2-trifluoroacetate] |
| 1000 to 30000 | ≤ 500 | NCc1ccnc(S(=O)(=O)N2C[C@@H](C(=O)N3CCS(=O)(=O)CC3)C[C@@H](N3CCCCC3)C2)c1 (racemic) [Example 148, cis-(1′-((4-(Aminomethyl)pyridin-2-yl)sulfonyl)-[1,3′-bipiperidin]-5′-yl)(1,1-dioxidothiomorpholino)methanone 2,2,2-trifluoroacetate] |
| > 30000 | ≤ 500 | NCc1cccc(S(=O)(=O)[C@@H]2C[C@H](C3CCCCC3)CN(C(=O)N3CCS(=O)(=O)CC3)C2)c1 (racemic) [Example 137, cis-(3-((3-(Aminomethyl)phenyl)sulfonyl)-5-cyclohexylpiperidin-1-yl)(1,1-dioxidothiomorpholino)methanone] |
| > 30000 | 1000 to 30000 | CS(=O)(=O)N1CCN(C(=O)[C@H]2C[C@@H](c3ccccc3)CN(S(=O)(=O)c3cccc(CN)n3)C2)CC1 (racemic) [Example 116] |
| 1000 to 30000 | ≤ 500 | CS(=O)(=O)N1CCN(C(=O)[C@@H]2C[C@@H](c3ccccc3)CN(S(=O)(=O)c3cccc(CN)c3)C2)CC1 (racemic) [Example 84, trans-(1-((3-(Aminomethyl)phenyl)sulfonyl)-5-phenylpiperidin-3-yl)(4-(methylsulfonyl)piperazin-1-yl)methanone 2,2,2-trifluoroacetate] |
| > 30000 | 1000 to 30000 | NCc1cccc(S(=O)(=O)N2C[C@@H](C(=O)N3CCS(=O)(=O)CC3)C[C@@H](C(F)(F)F)C2)c1 (racemic) [Example 99, cis-(1-((3-(Aminomethyl)phenyl)sulfonyl)-5-(trifluoromethyl)piperidin-3-yl)(1,1-dioxidothiomorpholino)methanone 2,2,2-trifluoroacetate] |
| 1000 to 30000 | ≤ 500 | CS(=O)(=O)N1C[C@@H](c2ccccc2)C[C@@H](S(=O)(=O)c2cccc(CN)c2)C1 (racemic) [Example 27, cis-(3-((1-(Methylsulfonyl)-5-phenylpiperidin-3-yl)sulfonyl)phenyl)methanamine 2,2,2-trifluoroacetate] |
| > 30000 | ≤ 500 | CN(C)C(=O)[C@@H]1C[C@H](S(=O)(=O)c2cccc(CN)c2)CN(C2CCCCC2)C1 (racemic) [Example 141, cis-5-((3-(Aminomethyl)phenyl)sulfonyl)-1-cyclohexyl-N,N-dimethylpiperidine-3-carboxamide] |

Source: patent US20230310445A1, “LOX ENZYME INHIBITING METHODS AND COMPOSITIONS” (ANOVIA BIOSCIENCES, INC., priority 2020, published 2023)
